Assay results reported in US12042472B2 (pHase Pharmaceuticals LLC, priority 2017, dated 2024).

Experiment: in vivo
Settings: for concentration at 0.033 h: Day 1, hour 0.033, LLQ 1 ng/mL
Method: Using a standard, by weight, randomization procedure, 21 male animals (weighing 3.25 to 3.73 kg at randomization), from a total of 36 male experimentally naïve New Zealand White Hra:(NZW)SPF albino rabbits (approximately 6 to 7 months of age), were assigned to the study as presented in Table 5.
To induce an anaphylactic syndrome, animals in Groups 1 to 4 were administered horse serum (0.2μ sterile filtered) via subcutaneous (“SC”) injection at dose volume of 2 mL/animal, followed two days later by an intravenous (“IV”) injection at a dose volume of 2 mL/animal.
Forty-one to 44 days following the beginning of the induction period, the animals were sedated by administration of 2 to 3 mg/kg via IM injection of acepromazine, 0.02 mg/kg via IM injection of buprenorphine and sevoflurane via inhalation.
Following induction of anesthesia, all animals were placed in dorsal recumbency position and an incision was made to locate the right or left femoral artery. An arterial sheath was introduced and advanced into the isolated artery and used to monitor blood pressure. Additionally, an off midline cervical neck incision was made to locate and isolate the left or right external jugular vein for collection of blood and for emergency drug administration, as needed.
Following induction of anesthesia and catheter placement, single or repeated challenge doses of 0.5 to 2 mL of filtered horse serum were administered intravenously to each animal in Groups 1 to 4.
Prior to tablet administration, the mouth of the animal was wet with 0.5 mL of tap water and the mouth was held shut for 15 to 30 seconds to help dissolve the tablet. For IM administration, the injections were made in the right rear flank of each animal.
Each 50 μL aliquot of standard, QC sample, and study sample was mixed with 200 μL of working internal standard solution (25 ng/mL in acetonitrile/methanol (50/50, v/v)). The sample was centrifuged, and a 200 μL aliquot of the resulting supernatant was transferred to a clean 96-well plate. The sample was evaporated and reconstituted with […] of water/formic acid (100/0.1, v/v). An aliquot was injected onto an LC-MS/MS system for analysis.
The liquid chromatography system used an ACE 5 C18 column, 50×2.1 mm (5 μm particle size) with an isocratic flow consisting of water/formic acid (100/0.1, v/v) and methanol/formic acid (100/0.05, v/v) at a flow rate of 400 μL/minute. The analyte and internal standard were detected using an SCIEX API 5000 triple quadrupole LC-MS/MS system equipped with an ESI (TurboIonSpray®) ionization source operated in the positive ion mode.
The lower limit of quantitation was 1 ng/ml and a linear 1/x2 weighting regression analysis was used.
Concentrations less than the lower limit of quantitation (LLOQ, <1.00 ng/mL) were reported as and set to zero. For each animal, the following pharmacokinetic parameters were determined: maximum observed plasma concentration (Cmax), time of maximum observed plasma concentration (Tmax), and area under the plasma concentration-time curve (AUC).
The formulation ratio was calculated using the following formula: Formulation Ratio=Mean AUC0-60 min Buccal Citrate÷Mean AUC0-60 min Buccal No citrate. The Induced Anaphylaxis to Non-induced anaphylaxis ratio was calculated using the following formula: Induced Anaphylaxis:Non-Induced Anaphylaxis=Mean AUC0-60 min Induced Anaphylaxis IM÷Mean AUC0-60 min Non-induced Anaphylaxis IM. Relative bioavailability (expressed as a percent) was calculated using the following formula: Relative Bioavailability=[AUC0-60 min/DoseBuccal (citrate and/or no citrate)]÷[AUC0-60 min/DoseIntramuscular (induced and/or non-induced)]*100.

Concentration (ng/mL), plasma epinephrine (Group 7, dose 0.3 mg, subject 701, male, Day 1, hour 0.333, LLQ 2 ng/mL): BLQ
concentration at 0 h (male, New Zealand White Hra:(NZW)SPF, rabbit, plasma, intramuscular, 0.3 mg, Concentration (ng/mL), plasma epinephrine, Group 7, dose 0.3 mg, subject 701, male, Day 1, hour 0, LLQ 2 ng/mL): 2.48 ng/mL
concentration at 0.033 h (male, New Zealand White Hra:(NZW)SPF, rabbit, plasma, intramuscular, 0.3 mg, Concentration (ng/mL), plasma epinephrine, Group 7, dose 0.3 mg, subject 701, male): 2.75 ng/mL
concentration at 0.083 h (male, New Zealand White Hra:(NZW)SPF, rabbit, plasma, intramuscular, 0.3 mg, Concentration (ng/mL), plasma epinephrine, Group 7, dose 0.3 mg, subject 701, male, Day 1, hour 0.083, LLQ 2 ng/mL): 4.32 ng/mL
concentration at 0.125 h (male, New Zealand White Hra:(NZW)SPF, rabbit, plasma, intramuscular, 0.3 mg, Concentration (ng/mL), plasma epinephrine, Group 7, dose 0.3 mg, subject 701, male, Day 1, hour 0.125, LLQ 2 ng/mL): 5.73 ng/mL
concentration at 0.167 h (male, New Zealand White Hra:(NZW)SPF, rabbit, plasma, intramuscular, 0.3 mg, Concentration (ng/mL), plasma epinephrine, Group 7, dose 0.3 mg, subject 701, male, Day 1, hour 0.167, LLQ 2 ng/mL): 4.76 ng/mL
concentration at 0.25 h (male, New Zealand White Hra:(NZW)SPF, rabbit, plasma, intramuscular, 0.3 mg, Concentration (ng/mL), plasma epinephrine, Group 7, dose 0.3 mg, subject 701, male, Day 1, hour 0.25, LLQ 2 ng/mL): 2.44 ng/mL
concentration at 0.5 h (male, New Zealand White Hra:(NZW)SPF, rabbit, plasma, intramuscular, 0.3 mg, Concentration (ng/mL), plasma epinephrine, Group 7, dose 0.3 mg, subject 701, male, Day 1, hour 0.5, LLQ 2 ng/mL): 2.06 ng/mL
concentration at 0.75 h (male, New Zealand White Hra:(NZW)SPF, rabbit, plasma, intramuscular, 0.3 mg, Concentration (ng/mL), plasma epinephrine, Group 7, dose 0.3 mg, subject 701, male, Day 1, hour 0.75, LLQ 2 ng/mL): 2.84 ng/mL
concentration at 1 h (male, New Zealand White Hra:(NZW)SPF, rabbit, plasma, intramuscular, 0.3 mg, Concentration (ng/mL), plasma epinephrine, Group 7, dose 0.3 mg, subject 701, male, Day 1, hour 1, LLQ 2 ng/mL): 3.1 ng/mL
concentration at 0 h (male, New Zealand White Hra:(NZW)SPF, rabbit, plasma, intramuscular, 0.3 mg, Concentration (ng/mL), plasma epinephrine, Group 7, dose 0.3 mg, subject 703, male, Day 1, hour 0, LLQ 1 ng/mL): 1.92 ng/mL
concentration at 0.033 h (male, New Zealand White Hra:(NZW)SPF, rabbit, plasma, intramuscular, 0.3 mg, Concentration (ng/mL), plasma epinephrine, Group 7, dose 0.3 mg, subject 703, male): 8.06 ng/mL
concentration at 0.083 h (male, New Zealand White Hra:(NZW)SPF, rabbit, plasma, intramuscular, 0.3 mg, Concentration (ng/mL), plasma epinephrine, Group 7, dose 0.3 mg, subject 703, male, Day 1, hour 0.083, LLQ 1 ng/mL): 6.6 ng/mL
concentration at 0.125 h (male, New Zealand White Hra:(NZW)SPF, rabbit, plasma, intramuscular, 0.3 mg, Concentration (ng/mL), plasma epinephrine, Group 7, dose 0.3 mg, subject 703, male, Day 1, hour 0.125, LLQ 1 ng/mL): 3.53 ng/mL
concentration at 0.167 h (male, New Zealand White Hra:(NZW)SPF, rabbit, plasma, intramuscular, 0.3 mg, Concentration (ng/mL), plasma epinephrine, Group 7, dose 0.3 mg, subject 703, male, Day 1, hour 0.167, LLQ 1 ng/mL): 2.32 ng/mL
concentration at 0.25 h (male, New Zealand White Hra:(NZW)SPF, rabbit, plasma, intramuscular, 0.3 mg, Concentration (ng/mL), plasma epinephrine, Group 7, dose 0.3 mg, subject 703, male, Day 1, hour 0.25, LLQ 1 ng/mL): 3.5 ng/mL
concentration at 0.333 h (male, New Zealand White Hra:(NZW)SPF, rabbit, plasma, intramuscular, 0.3 mg, Concentration (ng/mL), plasma epinephrine, Group 7, dose 0.3 mg, subject 703, male, Day 1, hour 0.333, LLQ 1 ng/mL): 3.78 ng/mL
concentration at 0.5 h (male, New Zealand White Hra:(NZW)SPF, rabbit, plasma, intramuscular, 0.3 mg, Concentration (ng/mL), plasma epinephrine, Group 7, dose 0.3 mg, subject 703, male, Day 1, hour 0.5, LLQ 1 ng/mL): 2.86 ng/mL
concentration at 0.75 h (male, New Zealand White Hra:(NZW)SPF, rabbit, plasma, intramuscular, 0.3 mg, Concentration (ng/mL), plasma epinephrine, Group 7, dose 0.3 mg, subject 703, male, Day 1, hour 0.75, LLQ 1 ng/mL): 5.36 ng/mL
concentration at 1 h (male, New Zealand White Hra:(NZW)SPF, rabbit, plasma, intramuscular, 0.3 mg, Concentration (ng/mL), plasma epinephrine, Group 7, dose 0.3 mg, subject 703, male, Day 1, hour 1, LLQ 1 ng/mL): 5.17 ng/mL
concentration at 0 h (male, New Zealand White Hra:(NZW)SPF, rabbit, plasma, intramuscular, 0.3 mg, Concentration (ng/mL), plasma epinephrine, Subject Group 3, dose 0.3 mg, male rabbits, Day 1, Hour 0): 2.29 ng/mL
concentration at 1 h (male, New Zealand White Hra:(NZW)SPF, rabbit, plasma, other: sublingual/buccal tablet, 35 mg, Concentration (ng/mL), plasma epinephrine, Group 2, dose 35 mg, subject 306, male, Day 1, hour 1, LLQ 2 ng/mL): 10.6 ng/mL
Compound: CNC[C@H](O)c1ccc(O)c(O)c1 [Epinephrine]
